Source: PubChem BioAssay (NCI)
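In this assay, cells in 96-well plates receive the compound at five concentrations for 48 hours. Endpoints are linearly interpolated between the surrounding concentrations. The concentration for 50% growth inhibition is given as GI50. TGI: total growth inhibition.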

How the values were obtained:
Experiment in all cases: NCI-60 cell line screen, 48 h
786-0 renal = tested on: 786-0 renal
A498 renal = tested on: A498 renal
A549 NSCLC = tested on: A549 NSCLC
ACHN renal = tested on: ACHN renal
CAKI-1 renal = tested on: CAKI-1 renal
CCRF-CEM leukemia = tested on: CCRF-CEM leukemia
COLO 205 colon = tested on: COLO 205 colon
DU-145 prostate = tested on: DU-145 prostate
EKVX NSCLC = tested on: EKVX NSCLC
HCC-2998 colon = tested on: HCC-2998 colon
HCT-116 colon = tested on: HCT-116 colon
HCT-15 colon = tested on: HCT-15 colon
HL-60(TB) leukemia = tested on: HL-60(TB) leukemia
HOP-62 NSCLC = tested on: HOP-62 NSCLC
HOP-92 NSCLC = tested on: HOP-92 NSCLC
HT29 colon = tested on: HT29 colon
IGROV1 ovarian = tested on: IGROV1 ovarian
K-562 leukemia = tested on: K-562 leukemia
KM12 colon = tested on: KM12 colon
LOX IMVI melanoma = tested on: LOX IMVI melanoma
M14 melanoma = tested on: M14 melanoma
MALME-3M melanoma = tested on: MALME-3M melanoma
MCF7 breast = tested on: MCF7 breast
MDA-MB-231 breast = tested on: MDA-MB-231 breast
MDA-MB-435 = tested on: MDA-MB-435
MDA-N = tested on: MDA-N
MOLT-4 leukemia = tested on: MOLT-4 leukemia
NCI-H226 lung = tested on: NCI-H226 lung
NCI-H23 lung = tested on: NCI-H23 lung
NCI-H522 lung = tested on: NCI-H522 lung
NCI/ADR-RES ovarian = tested on: NCI/ADR-RES ovarian
OVCAR-3 ovarian = tested on: OVCAR-3 ovarian
OVCAR-4 ovarian = tested on: OVCAR-4 ovarian
OVCAR-5 ovarian = tested on: OVCAR-5 ovarian
OVCAR-8 ovarian = tested on: OVCAR-8 ovarian
PC-3 prostate = tested on: PC-3 prostate
RPMI-8226 leukemia = tested on: RPMI-8226 leukemia
RXF 393 renal = tested on: RXF 393 renal
SF-295 CNS = tested on: SF-295 CNS
SF-539 CNS = tested on: SF-539 CNS
SK-MEL-2 melanoma = tested on: SK-MEL-2 melanoma
SK-MEL-28 melanoma = tested on: SK-MEL-28 melanoma
SK-MEL-5 melanoma = tested on: SK-MEL-5 melanoma
SK-OV-3 ovarian = tested on: SK-OV-3 ovarian
SN12C renal = tested on: SN12C renal
SNB-19 CNS = tested on: SNB-19 CNS
SNB-75 CNS = tested on: SNB-75 CNS
SW-620 colon = tested on: SW-620 colon
T-47D breast = tested on: T-47D breast
TK-10 renal = tested on: TK-10 renal
U251 CNS = tested on: U251 CNS
UACC-257 melanoma = tested on: UACC-257 melanoma
UACC-62 melanoma = tested on: UACC-62 melanoma
UO-31 renal = tested on: UO-31 renal

In the case of `C[C@H]1CCC/C=C/[C@@H]2C[C@H](O)C[C@H]2[C@H](O)[C@@H](SC2OC(CO)C(O)C(O)C2O)CC(=O)O1` (stereo partly drawn), the GI50 (786-0 renal) is reported as 25.1 µM, the TGI (786-0 renal) is reported as 59.9 µM and the GI50 (A498 renal) is reported as 20.7 µM. For the same compound, the TGI (A498 renal) was 63.8 µM, the GI50 (A549 NSCLC) was greater than 100 µM and the TGI (A549 NSCLC) was greater than 100 µM. It also gave a GI50 (ACHN renal) greater than 100 µM, a TGI (ACHN renal) greater than 100 µM and a GI50 (CAKI-1 renal) greater than 100 µM. The TGI (CAKI-1 renal) was greater than 100 µM, the GI50 (CCRF-CEM leukemia) was 61.2 µM and the TGI (CCRF-CEM leukemia) was greater than 100 µM. For the same compound, the GI50 (COLO 205 colon) was 19.4 µM, the TGI (COLO 205 colon) was 41.6 µM and the GI50 (DU-145 prostate) was greater than 100 µM. It also gave a TGI (DU-145 prostate) greater than 100 µM, a GI50 (EKVX NSCLC) greater than 100 µM and a TGI (EKVX NSCLC) greater than 100 µM. It also gave a GI50 (HCC-2998 colon) greater than 100 µM, a TGI (HCC-2998 colon) greater than 100 µM and a GI50 (HCT-116 colon) greater than 100 µM. It also gave a TGI (HCT-116 colon) greater than 100 µM, a GI50 (HCT-15 colon) greater than 100 µM and a TGI (HCT-15 colon) greater than 100 µM. The GI50 (HL-60(TB) leukemia) was greater than 100 µM, the TGI (HL-60(TB) leukemia) was greater than 100 µM and the GI50 (HOP-62 NSCLC) was 98.9 µM. It also gave a TGI (HOP-62 NSCLC) greater than 100 µM, a GI50 (HOP-92 NSCLC) greater than 100 µM and a TGI (HOP-92 NSCLC) greater than 100 µM. For the same compound, the GI50 (HT29 colon) was 23 µM, the TGI (HT29 colon) was 58.8 µM and the GI50 (IGROV1 ovarian) was greater than 100 µM. The TGI (IGROV1 ovarian) was greater than 100 µM, the GI50 (K-562 leukemia) was greater than 100 µM and the TGI (K-562 leukemia) was greater than 100 µM. It also gave a GI50 (KM12 colon) of 30.3 µM, a TGI (KM12 colon) of 68 µM and a GI50 (LOX IMVI melanoma) of 35.7 µM. It also gave a TGI (LOX IMVI melanoma) greater than 100 µM, a GI50 (M14 melanoma) of 61.3 µM and a TGI (M14 melanoma) greater than 100 µM. For the same compound, the GI50 (MALME-3M melanoma) was 27.6 µM, the TGI (MALME-3M melanoma) was 69.4 µM and the GI50 (MCF7 breast) was 35.1 µM. For the same compound, the TGI (MCF7 breast) was greater than 100 µM, the GI50 (MDA-MB-231 breast) was 26.9 µM and the TGI (MDA-MB-231 breast) was 91 µM. The GI50 (MDA-MB-435) was 69.8 µM, the TGI (MDA-MB-435) was greater than 100 µM and the GI50 (MDA-N) was 52.9 µM. It also gave a TGI (MDA-N) greater than 100 µM, a GI50 (MOLT-4 leukemia) greater than 100 µM and a TGI (MOLT-4 leukemia) greater than 100 µM. For the same compound, the GI50 (NCI-H226 lung) was 36.2 µM, the TGI (NCI-H226 lung) was greater than 100 µM and the GI50 (NCI-H23 lung) was 47.9 µM. The TGI (NCI-H23 lung) was greater than 100 µM, the GI50 (NCI-H522 lung) was greater than 100 µM and the TGI (NCI-H522 lung) was greater than 100 µM. It also gave a GI50 (NCI/ADR-RES ovarian) of 43.3 µM, a TGI (NCI/ADR-RES ovarian) greater than 100 µM and a GI50 (OVCAR-3 ovarian) greater than 100 µM. The TGI (OVCAR-3 ovarian) was greater than 100 µM, the GI50 (OVCAR-4 ovarian) was 54.1 µM and the TGI (OVCAR-4 ovarian) was greater than 100 µM. The GI50 (OVCAR-5 ovarian) was 48 µM, the TGI (OVCAR-5 ovarian) was greater than 100 µM and the GI50 (OVCAR-8 ovarian) was 35 µM. The TGI (OVCAR-8 ovarian) was greater than 100 µM, the GI50 (PC-3 prostate) was greater than 100 µM and the TGI (PC-3 prostate) was greater than 100 µM. The GI50 (RPMI-8226 leukemia) was greater than 100 µM, the TGI (RPMI-8226 leukemia) was greater than 100 µM and the GI50 (RXF 393 renal) was 20 µM. For the same compound, the TGI (RXF 393 renal) was 55.8 µM, the GI50 (SF-295 CNS) was greater than 100 µM and the TGI (SF-295 CNS) was greater than 100 µM. It also gave a GI50 (SF-539 CNS) of 31.9 µM, a TGI (SF-539 CNS) greater than 100 µM and a GI50 (SK-MEL-2 melanoma) greater than 100 µM. The TGI (SK-MEL-2 melanoma) was greater than 100 µM, the GI50 (SK-MEL-28 melanoma) was 74.3 µM and the TGI (SK-MEL-28 melanoma) was greater than 100 µM. It also gave a GI50 (SK-MEL-5 melanoma) of 16.2 µM, a TGI (SK-MEL-5 melanoma) of 30 µM and a GI50 (SK-OV-3 ovarian) greater than 100 µM. It also gave a TGI (SK-OV-3 ovarian) greater than 100 µM, a GI50 (SN12C renal) greater than 100 µM and a TGI (SN12C renal) greater than 100 µM. The GI50 (SNB-19 CNS) was greater than 100 µM, the TGI (SNB-19 CNS) was greater than 100 µM and the GI50 (SNB-75 CNS) was 53.2 µM. It also gave a TGI (SNB-75 CNS) greater than 100 µM, a GI50 (SW-620 colon) greater than 100 µM and a TGI (SW-620 colon) greater than 100 µM. It also gave a GI50 (T-47D breast) greater than 100 µM, a TGI (T-47D breast) greater than 100 µM and a GI50 (TK-10 renal) greater than 100 µM. The TGI (TK-10 renal) was greater than 100 µM, the GI50 (U251 CNS) was greater than 100 µM and the TGI (U251 CNS) was greater than 100 µM. It also gave a GI50 (UACC-257 melanoma) of 44.5 µM, a TGI (UACC-257 melanoma) greater than 100 µM and a GI50 (UACC-62 melanoma) of 33.6 µM. It also gave a TGI (UACC-62 melanoma) greater than 100 µM, a GI50 (UO-31 renal) of 47.9 µM and a TGI (UO-31 renal) greater than 100 µM.
